Data reported in paper PMC11647681, “Discovery of Non-Covalent Inhibitors for SARS-CoV-2 PLpro: Integrating Virtual Screening, Synthesis, and Experimental Validation” (ACS Medicinal Chemistry Letters, 2024).
≈ marks a conversion by molar mass, not a printed value. Where “and” joins values, the source holds several entries; their conditions need not be identical. Equal entries are not always repeated. Where two headings read alike, the source gives them in different places.

Legend:
SARS-CoV-2 PLpro = SARS-CoV-2 PLpro (Severe acute respiratory syndrome coronavirus 2, UniProt P0DTD1); test: SARS-CoV-2 PLpro inhibition assay (enzymatic, LKGG-AMC substrate); type: biochemical; settings: for Ki: Hanes-Woolf plot; for Ki / inhibition mechanism: kinetic characterization; for IC50: enzymatic assay
in vitro [1] = settings: chlorocebus sabaeus
in vitro [2] = settings: human
[3] = mouse, microsomes, 0.5 h; cited from earlier work
[4] = rat, microsomes, 0.5 h; cited from earlier work
PLpro = settings: cited from earlier work; for IC50: PLpro

Row | Structure (SMILES) | IC50 (SARS-CoV-2 PLpro) [µM] | CC50 (in vitro [1]) [µM] | CC50 (in vitro [2]) [µM] | solubility (physchem) [µM] | other results
1 | COc1ccc(-c2ccc3nccc(N[C@@H]4CCNC4)c3n2)cn1 [Compound 85, COC1=NC=C(C2=NC3=C(N=CC=C3N[C@@H]4CCNC4)C=C2)C=C1] | 15.1 ± 2.19 | 7.47 | 26.3 | 190 (≈ 61.1 µg/mL) | fold improvement in PLpro activity (SARS-CoV-2 PLpro; 85 compared with 1): 5 fold; Ki (SARS-CoV-2 PLpro): 22.9 µM and 20.1 µM; inhibition mechanism (SARS-CoV-2 PLpro): competitive; inhibition test in absence and presence of CHAPS detergent (aggregation check) (SARS-CoV-2 PLpro; with and without 1 mM CHAPS): No significant difference; Microsomal stability, % remaining after 30 min [3]: 66.61%; Microsomal stability, % remaining after 30 min [4]: 62.68%
2 | CNC(=O)c1ccc(-c2ccc3nccc(NC4CCNCC4)c3n2)cn1 [Compound 84, O=C(NC)C1=NC=C(C2=NC3=C(N=CC=C3NC4CCNCC4)C=C2)C=C1] | 39.5 ± 4.62 | 47.3 | > 50 | 175 (≈ 63.4 µg/mL) | 
3 | S=C(SSC(=S)N1CCOCC1)N1CCOCC1 [RI173] |  |  |  |  | IC50 (PLpro): 0.2 µM
4 | Cn1ccc(-c2ccc3nccc(N[C@@H]4CCNC4)c3n2)cc1=O [Compound 1, Cn1ccc(cc1=O)-c1ccc2nccc(NC3CC[NH2+]C3)c2n1] | 73.6 | 23.8 | > 50 | 195 (≈ 62.7 µg/mL) | Ki (SARS-CoV-2 PLpro): 22.4 ± 6.7 µM; inhibition mechanism (SARS-CoV-2 PLpro): competitive; inhibition test in absence and presence of Triton (aggregation check) (SARS-CoV-2 PLpro; with or without 0.01% Triton): no significant differences
5 | O=C(NCc1cccc(F)c1)c1ncc2ccccn12 [Compound 6, Fc1cccc(CNC(=O)c2ncc3ccccn23)c1] | 194 |  |  |  | 
6 | CN1CCC(Nc2ccnc3ccc(-c4ccc(C(=O)NCCO)nc4)nc23)CC1 [Compound 82, O=C(NCCO)C1=NC=C(C2=NC3=C(N=CC=C3NC4CCN(C)CC4)C=C2)C=C1] | 79.8 ± 20.4 | > 50 | > 50 | 200 (≈ 81.3 µg/mL) | 
7 | O=C1CN(C(=O)CNC(=O)c2ccc3c(c2)B(O)OC3)CCN1 [Compound 5, O[B]1OCc2ccc(cc21)C(=O)NCC(=O)N1CCNC(=O)C1] | 137 |  |  |  | 
9 | CCN(CCNc1nc2ccccc2[nH]1)Cc1cc(Cl)ccc1O [Compound 2, CCN(CCNc1nc2ccccc2[nH]1)Cc1cc(ccc1O)Cl] | 102 |  |  |  | 
10 | CS(=O)(=O)c1cccc(-c2ccc3nccc(N4CCNCC4)c3n2)c1 [Compound 83, O=S(C1=CC=CC(C2=NC3=C(N=CC=C3N4CCNCC4)C=C2)=C1)(C)=O] | 54.8 | 43.6 | > 50 | 180 (≈ 66.3 µg/mL) | Microsomal stability, % remaining after 30 min [3]: 60.24%; Microsomal stability, % remaining after 30 min [4]: 50.41%
11 | CCn1ccc(-c2cc(-c3cnn(C)c3)cc([C@@H](C)NC(=O)c3cc(OCCN(C)C)ccc3C)c2)n1 [Jun12682] |  |  |  |  | protease, deubiquitinase, and deISGylase activity of PLpro (PLpro): inhibited
12 | CCN(CC)Cc1cc(Nc2nc3ccccc3[nH]2)ccc1O [Compound 3, CCN(CC)Cc1cc(ccc1O)Nc1nc2ccccc2[nH]1] | 127 |  |  |  | 
13 | NCCNc1nccc2[nH]c(-c3ccc(F)c(F)c3)nc12 [Compound 4, NCCNc1nccc2[nH]c(nc12)-c1ccc(c(c1)F)F] | 130 |  |  |  | 
